Measured values published in PMC3672105, “Identification and Enhancement of HLA-A2.1-Restricted CTL Epitopes in a New Human Cancer Antigen-POTE” (PLoS ONE, 2013).

Legend:
[1] = tested on: C1R.AAD cells pulsed with peptides; experiment: 4-h 51Cr release CTL assay on peptide-pulsed targets after one week in vitro stimulation; format: cell-based, human; settings: CTLs from immunized AAD mice after one week in vitro stimulation with cognate peptide (1.0 µM), targets pulsed with 1.0 µM peptide
Excerpt: (§1) Cytokines were purchased from Peprotech (Rocky Hill, NJ). […] For all experiments, groups of three mice were used.

[2] = target: T1, HLA-A2 molecule (Homo sapiens, UniProt P04439, D140Y/D185E/D98H/E176V/E277Q/G131W/G231S/I119V/I121R/I166T/I218V/L300P/L318F/N151K/N90K/P208A/P217A/Q86G/Q94H/R138H/R169H/T345S); experiment: T2 binding assay; settings: for HLA-A2 binder class in words: T2 binding assay; for FI0.5 (peptide concentration that increases HLA-A2.1 expression by 50% over no peptide control): BB7.2 staining, flow cytometry, triplicate; for FI0.5 lower (higher affinity) than that of the POTE 252 peptide: ratio to wild type POTE 252
T1 construct: endogenous in cells; host or cells: T2 cell line (TAP1/TAP2-deficient)
Procedure: Peptide binding capacity to the HLA-A2 molecule was measured by using the T2 cell line according to a protocol described previously, [22]. T2 cells (3 × 10^5 cells/well) were incubated overnight in 96-well plates with culture medium (1∶1 mixture of RPMI 1640/Eagle-Hank’s amino acid containing 2.5% fetal bovine serum, 100 U/ml penicillin, and 100 µg/ml streptomycin) with 10 µg/ml β2-microglobulin (Sigma) and different titrated concentrations of peptides (starting from 100 µM with 2-fold serial dilution) as shown in the figures to determine the concentration giving a 50% increase in binding (see below). Cells were washed once with cold HBSS containing 0.1% BSA and incubated for 30 min at 4°C with anti-HLA-A2.1 monoclonal antibody (clone BB7.2) (1∶40 dilution from hybridoma supernatant). After washing, cells were stained with FITC-labeled goat anti-mouse immunoglobulin (BD, San Jose, CA), and the level of HLA expression was measured by flow cytometry. HLA-A2 expression was quantified as fluorescence index (FI) according to the following formula: FI = (geometric mean fluorescence intensity with peptide - geometric mean fluorescence intensity without peptide)/geometric mean fluorescence intensity without peptide. Background fluorescence without BB7.2 was subtracted for each individual value. To compare the different peptides, FI0.5, the peptide concentration that increases HLA-A2.1 expression by 50% over no peptide control background, was calculated from the titration curve for each peptide. It should be noted that the FI0.5 provides a relative measure of peptide affinity or potency among peptides compared side by side, but cannot be taken as a thermodynamic affinity.

[3] = tested on: AAD transgenic mice; experiment: Ex vivo interferon-γ ELISPOT assay after peptide immunization; format: in vivo, mouse; settings: for IFN-γ response (ELISPOT) after stimulation with the immunizing peptide: AAD mice immunized s.c. with 50 nmol peptide, boosted at 2 weeks, pooled splenocytes of 3 mice, targets pulsed with 1.0 µM (1000 nM) peptide; for cross-reactive IFN-γ response (ELISPOT) to wild type peptide: AAD mice immunized with enhanced peptide, stimulation with wild type peptide
Procedure: as §1
The numbers of IFN-γ secreting cells were determined by an ELISPOT kit (Mouse IFN-gamma ELISpot SixPak; R&D, Minneapolis, […]) or by a set of anti-mouse IFN-γ coating (AN18) and detecting (R4–6A2) monoclonal antibodies (Mabtech) according to the manufacturer’s instructions. Two weeks after the last immunization, spleen cells were plated on antibody-coated plates at 200,000, 100,000 and 50.000 cells/well and stimulated with 200,000 peptide-pulsed naïve spleen cells/well with indicated concentration of peptides for 2 hours. After incubation overnight at 37°C, the plates were washed and detecting antibody was added. An ELISPOT blue color module (R&D) was used for color development. The spots were read by an ELISPOT reader (AID). All samples were analyzed in triplicate.

[4] = tested on: HHD-2 mice; experiment: HLA-A2/peptide tetramer staining and TCR Vβ repertoire of CD8+ T cells; format: in vivo, mouse; settings: HHD-2 mice immunized with the peptide; for tetramer-positive CD8+ T cells: HLA-A2/peptide tetramer staining, Figure 2C
Excerpt: as §1
Tetrameric MHC class I/peptide complexes obtained from the NIH Tetramer Facility were synthesized as described previously, [25]. Briefly, purified single-chain HLA-A2 molecules were synthesized by a prokaryotic expression system (pET; R&D Systems, Minneapolis, MN). The heavy chain was modified containing the Bir-A enzymatic biotinylation site. Single-chain heavy chain-β2-microglobulin and peptide were refolded by dilution into a redoxshuffling buffer system. The refolded product was biotinylated by Bir-A in the presence of […] (Avidity, Denver, CO). Streptavidin-Phycoerythrin conjugate (Jackson ImmunoResearch, West Grove, PA) was added in a 1∶4 molar ratio. Per-CP labeled anti-mouse CD8 antibody (BD Pharmingen) and TCR Vβ screening panel (BD Pharmingen) were used to detect the TCR repertoire of the CTLs.

[5] = predicted wild type peptides, Figure 1A, T2 cells overnight with peptide (from 100 µM, 2-fold dilutions) and 10 µg/ml β2-microglobulin
[6] = wild type and substituted peptides, Figure 1B-D, T2 cells overnight with peptide and 10 µg/ml β2-microglobulin

Row | Sequence | FI0.5 (peptide concentration that increases HLA-A2.1 expression by 50% over no peptide control) [2, 6] [µM] | CTL lysis of peptide-pulsed target cells [1] | IFN-γ response (ELISPOT) after stimulation with the immunizing peptide [3] | other results
1 | GLTPLLLGV [POTE 272–280] |  | lysed target cells pulsed with POTE 272 | induced significant IFN-γ responses | HLA-A2 binder class in words ([2]; Figure 1A): strongest binding affinity; FI0.5 (peptide concentration that increases HLA-A2.1 expression by 50% over no peptide control) [2, 5]: 0.9 µM
2 | KILEEIESV [POTE 553–561] |  | not any significant detectable target cell lysis | did not induce any significant IFN-γ responses | HLA-A2 binder class in words ([2]; Figure 1A): intermediate binders; FI0.5 (peptide concentration that increases HLA-A2.1 expression by 50% over no peptide control) [2, 5]: 5.6 µM
3 | KLAAKALLL [POTE 252-3A] | 16.9 |  |  | 
4 | KLLEEIESV [POTE 553-2L] | 0.1 | did not lyse target cells pulsed with POTE 553-2L | induced some level of IFN-γ responses only after stimulation with the same peptide | cross-reactive IFN-γ response (ELISPOT) to wild type peptide [3]: no cross-reactive response to wild type peptide was detected
5 | KLMAKAALL [POTE 252-7A] | 4 |  |  | 
6 | KLMAKALLL [POTE 252–260] |  | lysed target cells pulsed with the wild type POTE 252 as well as POTE 252-9V | induced a significant number of IFN-γ spots | HLA-A2 binder class in words ([2]; Figure 1A): intermediate binders; FI0.5 (peptide concentration that increases HLA-A2.1 expression by 50% over no peptide control) [2, 5]: 1.6 µM; tetramer-positive CD8+ T cells [4]: 9.3%
7 | KLMAKALLV [POTE 252-9V] | 0.8 | lysed target cells pulsed with the wild type POTE 252 as well as POTE 252-9V | induced a significant number of IFN-γ spots | FI0.5 lower (higher affinity) than that of the POTE 252 peptide [2]: ~2 fold; cross-reactive IFN-γ response (ELISPOT) to wild type peptide [3]: cross-reactivity to both POTE 252 and POTE 252-9V; tetramer-positive CD8+ T cells [4]: 6.8%; CD8+tetramer+ T cells positive for Vβ10 ([4]; TCR Vβ screening panel, Figure 2D): about 80%
8 | LLLEQNVDV [POTE 323–331] |  | failed to lyse target cells pulsed with POTE 323 | only marginal IFN-γ responses | HLA-A2 binder class in words ([2]; Figure 1A): strongest binding affinity; FI0.5 (peptide concentration that increases HLA-A2.1 expression by 50% over no peptide control) [2, 5]: 0.8 µM; IFN-γ response over background level (ELISPOT) ([3]; AAD mice immunized with 50 nmol peptide, targets pulsed with 1000 nM peptide): less than 2 fold
9 | YLMAKALLL [POTE 252-1Y] | 0.9 |  | no significant IFN-γ responses were detected | FI0.5 lower (higher affinity) than that of the POTE 252 peptide [2]: ~2 fold

The next lines start with results.

Row | FI0.5 (peptide concentration that increases HLA-A2.1 expression by 50% over no peptide control) [2, 6] [µM] | Sequence | CTL lysis of peptide-pulsed target cells [1] | IFN-γ response (ELISPOT) after stimulation with the immunizing peptide [3] | other results
10 | 0.2 | KILEEIASV [POTE-553-7A] |  |  | 
11 | 0.4 | LLAEQNVDV [POTE 323-3A] |  |  | 
12 | 0.09 | LLFEQNVDV [POTE 323-3F] | lysed target cells pulsed with the POTE 323-3F, as well as wild type POTE 323 | induced significant IFN-γ spots | FI0.5 better than the wild type peptide ([2]; ratio to wild type POTE 323): approximately 3 fold; cross-reactive IFN-γ response (ELISPOT) to wild type peptide [3]: some degree of IFN-γ response was also detected
13 | 2.78 | LLLEQNADV [POTE 323-7A] |  |  | 
14 | 0.024 | YILEEIESV [POTE 553-1Y] | lysed target cells pulsed with not only POTE 553-1Y, but also POTE 553 and POTE 553-2L peptides | induced some level of IFN-γ responses only after stimulation with the same peptide | cross-reactive IFN-γ response (ELISPOT) to wild type peptide [3]: no cross-reactive response to wild type peptide was detected
15 | 0.25 | YLLEQNVDV [POTE 323-1Y] |  |  | 
